Earlier results as cited in patent US20050069593A1, “Nutritional supplement containing 7-Keto-DHEA and conjugated linoleic acid” (LIFE TIME FITNESS, Inc., priority 2003, published 2005).

Tested on: brown adipose tissue
Conditions: in vitro; Dulloo, et al., Int. J. Obes. Relat. Metab. Disord. 24, 252 (2000)

O=C(O[C@@H]1Cc2c(O)cc(O)cc2O[C@@H]1c1cc(O)c(O)c(O)c1)c1cc(O)c(O)c(O)c1 [EGCG, epigallocatechin gallate]
respiration rate of brown adipose tissue: increased
